Our source for the TGI values is PubChem BioAssay (NCI).

SMILES strings stand for the structures.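 Tested at 5 concentrations; 48 h exposure; 96-well plates; endpoints linearly interpolated, else capped at highest concentration. TGI is the concentration that stops growth completely.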

Test in all cases: NCI tumour cell line growth inhibition, 48 h
In experiment [1] the test system is EKVX NSCLC.
Experiment [2] concerns UO-31 renal.
Experiment [3] has as its system MDA-MB-435.
For experiment [4], the system named is NCI-H460 lung.
Experiment [5] concerns LOX IMVI melanoma.
Experiment [6] deals with RPMI-8226 leukemia.
Experiment [7] deals with U251 CNS.
For experiment [8], the system named is HCT-15 colon.
The subject of experiment [9] is SK-MEL-5 melanoma.
Experiment [10] has as its system MDA-N.
The test system of experiment [11] is COLO 205 colon.
The test system of experiment [12] is HT29 colon.
Experiment [13] deals with SK-OV-3 ovarian.

As for `CC1(C)O[C@H]2OC(CO)C(N=[N+]=[N-])[C@H]2O1` (some centres not stated), the TGI in experiment [1], in experiment [2], in experiment [3], in experiment [4], in [5] and in experiment [6] was > 100 µM in each case. Also, the TGI in experiment [7], in experiment [8], in experiment [9], in experiment [10], in experiment [11] and in experiment [12] was > 100 µM each time.

Take `CN1CCCOC(c2ccc(Cl)cc2)O1` (configuration not stated): the TGI in experiment [1], in experiment [2], in [13], in [3], in experiment [4] and in [5] was > 100 µM each time. Also, the TGI in [7], in experiment [8], in experiment [9], in [10], in experiment [11] and in experiment [12] was > 100 µM throughout.

Regarding `Cn1nnnc1SC(F)(F)c1nc2ccccc2o1`, the TGI in experiment [2], in [13], in experiment [3], in experiment [4], in [6] and in experiment [7] was > 100 µM in each case. Besides, the TGI in [8], in experiment [9], in experiment [10], in experiment [11] and in experiment [12] was > 100 µM throughout.

For `COCn1cnc2c(=O)nc(SC)n(-c3ccccc3)c21`, the TGI in experiment [1], in [2], in [13], in experiment [3], in experiment [5] and in experiment [6] was > 100 µM in each case. In addition, the TGI in [8], in experiment [9], in experiment [10], in experiment [11] and in [12] was > 100 µM each time.

With `CCOc1cc(NC(C)=O)ccc1C(=O)NNS(=O)(=O)c1ccc(NC(C)=O)cc1`, the TGI in experiment [1], in experiment [2], in [13], in experiment [3], in experiment [4] and in [5] was > 100 µM throughout. Moreover, the TGI in experiment [6] is 86.4 µM; in experiment [8], > 100 µM; in experiment [9], 69.3 µM; in [10], 39.2 µM; in experiment [11], 76.2 µM; in experiment [12], > 100 µM.

With `CC(=O)Nc1c(C(=N)C#N)ncn1CCO`, the TGI in experiment [1], in [13], in experiment [3], in [4], in [5] and in experiment [6] was > 100 µM in each case. Moreover, the TGI in experiment [7], in experiment [8], in experiment [9], in [10], in experiment [11] and in experiment [12] was > 100 µM each time.

As for `C/C=C\C(CC(=O)NCC(=O)c1c[nH]c2ccccc12)CC(=O)OC` (configuration not stated), the TGI in experiment [1], in experiment [2], in experiment [13], in experiment [3], in experiment [4] and in experiment [6] was > 100 µM in each case. Moreover, the TGI in [7], in [8], in [9], in [10], in experiment [11] and in [12] was > 100 µM each time.

For the molecule `CCOP(=O)(OCC)/C(C#N)=C/c1ccc(-c2cc(C(F)(F)F)cc(C(F)(F)F)c2)o1`, the TGI came to 35 µM in experiment [1]; 34.9 µM in experiment [2]; 29 µM in [3]; 19.1 µM in [4]; 15.9 µM in experiment [5]; 23.5 µM in experiment [6]. Besides, the TGI in experiment [7] worked out at 24.4 µM; in [8], 20.7 µM; in experiment [10], 27.2 µM; in experiment [11], 27.4 µM; in experiment [12] it was 21.9 µM.

`O=C1CC(=O)NC(=NN2C(=O)/C(=C/c3ccc(Cl)c(Cl)c3)N=C2c2ccccc2)N1`: the TGI in [2] is > 100 µM; in experiment [13], > 100 µM; in experiment [3], > 100 µM; in [4], 74.9 µM; in experiment [6], 47 µM; in [7], 90.4 µM. The TGI in experiment [8] is > 100 µM; in [9] it was 30.3 µM; in experiment [10], 90.7 µM; in experiment [11] it was 34.1 µM; in experiment [12] it was 44.4 µM.

Consider `CCOC(=O)C(NC(=O)c1ccccc1)(N1CCN(c2cc3c(cc2F)c(=O)c(C(=O)O)cn3C2CC2)CC1)C(F)(F)F` (configuration not stated), for which the TGI in experiment [1] is 67.1 µM; in experiment [2] it was 63.3 µM; in [13] it was 80.2 µM; in [3], 45.2 µM; in experiment [4] it was 44.6 µM; in experiment [6], 54.1 µM. In addition, the TGI in experiment [7] was > 100 µM; in experiment [9] it was 29.4 µM; in experiment [10], 46.8 µM; in experiment [11] it was 30.8 µM.

Regarding `COc1ccc(/C(Cl)=C(\C#N)c2ccc(OC)c(OC)c2)cc1OC`, the TGI was 94 µM in [1]; > 100 µM in [2]; > 100 µM in [3]; > 100 µM in experiment [4]; > 100 µM in experiment [5]; 60.4 µM in experiment [6]. Moreover, the TGI in experiment [7], in [8], in experiment [9], in experiment [10], in experiment [11] and in experiment [12] was > 100 µM throughout.

Regarding `COc1ccc2nc(-c3ccccc3)c(=O)[nH]c2c1`, the TGI in experiment [1], in [3], in [4], in experiment [5], in experiment [6] and in experiment [8] was > 100 µM each time. Besides, the TGI in experiment [9], in experiment [10], in experiment [11] and in [12] was > 100 µM each time.

As for `CC(=O)OCC1OC(n2c(C)c(N=Nc3ccc(Cl)cc3)c(C)c(C#N)c2=S)C(OC(C)=O)C(OC(C)=O)C1OC(C)=O` (configuration not stated), the TGI in experiment [2], in [13], in experiment [3], in [4], in [5] and in experiment [6] was > 100 µM throughout. Besides, the TGI in experiment [7] was 98 µM; in experiment [8], > 100 µM; in experiment [9], > 100 µM; in experiment [10], > 100 µM; in experiment [11], > 100 µM; in [12], > 100 µM.

For the molecule `O=c1[nH]nc(Cc2ccc(Cl)cc2)n1/N=C/c1cccs1`, the TGI in experiment [1], in experiment [2], in [13], in [3], in [4] and in [6] was > 100 µM each time. Moreover, the TGI is > 100 µM in [7]; > 100 µM in experiment [8]; > 100 µM in experiment [10]; > 100 µM in [11]; 40.2 µM in [12].

For `Cc1ccc(S(=O)(=O)C2=C(C(C)C)N=NC2(C)C)cc1`, the TGI was > 100 µM in [1]; > 100 µM in [2]; > 100 µM in experiment [3]; > 100 µM in experiment [4]; > 100 µM in [5]; 53.8 µM in experiment [6]. The TGI in experiment [7], in experiment [8], in experiment [9], in experiment [10] and in [12] was > 100 µM throughout.

Turning to `S=C1NCCN1C(=S)Nc1ccccc1`, the TGI in experiment [1], in experiment [2], in experiment [13], in experiment [3], in experiment [4] and in [5] was > 100 µM throughout. In addition, the TGI in experiment [7], in experiment [8], in experiment [9], in experiment [10], in [11] and in experiment [12] was > 100 µM throughout.

With `O=C1C=C(Nc2ccc(S(=O)(=O)Nc3nccs3)cc2)c2ccccc2C1=O`, the TGI is > 100 µM in [1]; > 100 µM in [2]; > 100 µM in experiment [13]; 33.5 µM in experiment [3]; > 100 µM in experiment [4]; 48.6 µM in [5]. Moreover, the TGI in [6] came out at 98.5 µM; in experiment [7], 48 µM; in experiment [8], 79.4 µM; in experiment [9], 38.7 µM; in experiment [10], 38.5 µM; in experiment [12] it was 39.3 µM.

With `O=P1(Cc2ccccc2)N(Cc2ccccc2)[C@@H]2CCCC[C@H]2N1Cc1ccccc1`, the TGI in experiment [1] was found to be 22.4 µM; in experiment [2] it was 19.7 µM; in [13], 28 µM; in [3], 19.8 µM; in experiment [4], 25.8 µM; in experiment [5] it was 26.1 µM. For the same molecule, the TGI in experiment [7] stood at 25.5 µM; in [8] it was 23.8 µM; in experiment [9], 3.57 µM; in experiment [10], 19.8 µM; in [11] it was 18.7 µM; in experiment [12], 18.6 µM.

Take `NC1(CCNC(=O)c2ccccc2)CCN(C(=O)c2ccccc2)CC1`: the TGI in [1], in experiment [2], in experiment [13], in experiment [3], in [4] and in experiment [6] was > 100 µM each time. The TGI in experiment [7], in [8], in experiment [9], in experiment [10], in experiment [11] and in experiment [12] was > 100 µM throughout.

For `Cc1[nH]n(-c2nc(O)c(-c3ccccc3)c(=O)[nH]2)c(=O)c1CCO`, the TGI in [1], in experiment [2], in experiment [13], in experiment [3], in experiment [4] and in [6] was > 100 µM each time. Moreover, the TGI in experiment [7], in experiment [8], in experiment [9], in experiment [10], in experiment [11] and in [12] was > 100 µM throughout.

On to `CC(NC(=O)Cc1ccccc1)NC(=O)C(C)C(=O)NCc1ccccc1` (configuration not stated), for which the TGI in experiment [1], in [2], in experiment [13], in experiment [3], in experiment [4] and in [6] was > 100 µM in each case. In addition, the TGI in experiment [7], in experiment [8], in experiment [9], in experiment [10], in experiment [11] and in experiment [12] was > 100 µM throughout.

For the molecule `CS(=O)(=O)N1CC(CCl)c2ccc(O)cc21` (configuration not stated), the TGI in [1] is 16.3 µM; in experiment [2], 5.79 µM; in experiment [3], 3.86 µM; in experiment [4], 11.3 µM; in experiment [5], 14.4 µM; in experiment [6], 6.91 µM. For the same molecule, the TGI in [7] amounted to 10.3 µM; in experiment [8], 18.6 µM; in [9], 3.46 µM; in experiment [10] it was 3.54 µM; in experiment [11] it was 4.34 µM; in experiment [12], 14.2 µM.

As for `CC1CC(Nc2ccc(Br)cc2)N(C(=O)c2ccc(Br)cc2)O1` (configuration not stated), the TGI in experiment [1], in experiment [2], in experiment [13], in experiment [3], in experiment [4] and in [6] was > 10 µM each time. In addition, the TGI in [8], in [9], in experiment [10], in experiment [11] and in experiment [12] was > 10 µM in each case.

With `CN1CC=C(c2c(N)nc(N)[nH]c2=O)CC1`, the TGI in [1], in [2], in experiment [13], in experiment [3], in experiment [4] and in experiment [6] was > 100 µM in each case. Further, the TGI in [7], in experiment [8], in [9], in experiment [10], in experiment [11] and in experiment [12] was > 100 µM each time.
